Data from patent US20050192262A1, “Treatment of tumours” (priority 2001, published 2005).

Assays:
DU-145 = assay: Trypan blue exclusion trial, number of viable and dead cells; format: cell-based, human; details: 96 hours; for DU-145 mean % viable / DU-145 mean Dead cells / DU-145 mean Tot. cells / DU-145 mean Viable cells: 100 nM; for DU-145 mean Dead cells / DU-145 mean Tot. cells / DU-145 mean Viable cells: mean (range)
Method: (§1) Human prostatic cancer cell lines, PC-3 and DU-145, were used. Frozen cell lines were established in culture. DU-145, which was received as a tumour piece, was first disintegrated in a sterile Petri dish, using a pair of scissors. The disintegrated tumour was transferred to a […] cell-culture flask containing medium. For medium, Ham's F 10 was used for PC-3 and RPMI 1640 for DU-145.
(§2) FBS 10%, 0.2% NaHCO3 (7.5%), 2 mM L-glutamine (200 mM) and 0.005 mg/ml gentamycin (5 mg/ml) were added to culturing media for both cell lines.
(§3) Cells were grown in […] cell culture flasks until nearly confluent and culture medium was changed twice weekly. A solution of 17α-AED, 17-β-AED as well as a mixture of both in equal parts of DMSO and ethanol diluted in culture medium, not allowing the concentration of DMSO in culture-flasks to exceed 0.15%, was added respectively.
(§4) The concentration of AED in each culture flask was 100 nM. Controls were exposed to the same concentration of DMSO and ethanol in culture medium.
(§5) Exposure was maintained for 96 hours and cells in culture flasks were then treated with 5 ml of trypsin (0.25%) for PC-3 and trypsin and 3 ml of Versene (0.2 mM) for DU-145. Cells were then mechanically loosened, using a glass spatula. 100 μL aliquots were removed for Trypan blue exclusion trial. 200 μL aliquots were removed for cytospin preparations. The remaining 700 μL samples were then centrifuged for 5 minutes at 510×g at 4° C. Supernatant was removed and cells were resuspended in medium in 1 ml of insect cell lysis buffer (Pharmingen # 21425A) and incubated for 30 minutes on ice. The cell lysates were then stored at −70° C. until analysis.
(§6) Trypan Blue Exclusion Trial 100 μL aliquots of the initial cell suspension in PBS were used to determine the viability of cells collected by means of the trypan blue exclusion assay. 10 μL of the cell suspensions were mixed with 10 μL trypan blue solution (Sigma Chemical Co. # T8154) and left to sit for 3 minutes. The numbers of viable and dead cells were counted in a hemocytometer.

PC-3 = assay: as above; format: cell-based, human; details: 96 hours; for PC-3 mean % viable / PC-3 mean Dead cells / PC-3 mean Tot. cells / PC-3 mean Viable cells: 100 nM; for PC-3 mean Dead cells / PC-3 mean Tot. cells / PC-3 mean Viable cells: mean (range); for increase in total number of cells compared to controls / proportion of viable cells: PC-3, 100 nM
Method: as §1, §2, §3, §4, §5, §6

PPARγ = details: Animals I; controls set to 100; mean (range); α-AED 10 mg 96 hours, β-AED 80 mg 456 hours, α+β sequential
Method: (§7) Thawed rat tumours from both experiments above were homogenized in ice cold lysis-buffer. (160 mM NaCl, 10 mM HEPES, 2 mM CaCl2, 5% SDS, 0.5% Triton X-100, 100 μg/ml phenyl-metylsulfonyl fluoride, 1 μg/ml leupeptin and 2 μg/ml aprotinin), placed on ice for 15 minutes and following clarification centrifuged for 10 minutes at 13,000 g. Protein content of homogenates were determined by Lowry assay.
(§8) Protein in lysates (90 μg) were separated by electrophoresis using 8% SDS-PAGE and separated proteins were transferred onto a nitrocellulose membrane (Amersham) in trans-blot electrophoretic transfer cell (Bio-Rad Laboratories).
(§9) After washing in TTBS the blots were reincubated with horseradish peroxidase conjugated secondary antibody (anti-goat antibodies 2020, Santa Cruz) diluted 1:4000 in TTBS containing 3% (w/v) non-fat, dried milk for one hour. Blots were developed using an enhanced chemiluminescence system (ECL, Amersham) and exposed to Hyperfilm ECL (Amersham). Optical density was measured densitometrically.
All experiments were repeated twice in separate assays.

β-catenin = assay: Western blotting of Dunning AT-1 rat prostate tumours; format: in vivo; details: for β-catenin expression, optical density: Animals I, controls set to 100, mean (range), α-AED 10 mg 96 hours, β-AED 80 mg 456 hours, α+β sequential; for expression of β-catenin: Animals II, exposure 80 hours in all arms
Method: (§10) The animal experiment described above was repeated.
as §7, §8, §9
(§11) The blots were striped and rehybridized with antibodies against β-catenin (C-18, sc. 1496) and COX-2 (C-20, sc 1745) antibodies.
(§12) In the second animal experiment tumours were investigated for expression of β-catenin, COX-2 and cyclin D1 (A-12, sc. 8396).

COX-2 = details: Animals I; controls set to 100; mean (range); α-AED 10 mg 96 hours, β-AED 80 mg 456 hours, α+β sequential
Method: as §10, §7, §8, §9, §11, §12

cyclin D1 = assay: Western blotting of Dunning AT-1 rat prostate tumours; format: in vivo; details: Animals II; exposure 80 hours in all arms
Method: as §10
(§13) Group 1 received a single dose of 10 mg 17α-AED sc. near tumour.
(§14) Group 2 received a single dose of 80 mg 17β-AED in the same way.
(§15) Group 3 received a single dose of 25 mg 17α OH-pregnenolone in the same way.
(§16) Group 4 received a single dose of 7.5 mg 5-androstene-3β,7β,17α-triol.
Protein content of homogenates were determined by Lowry assay.

VEGF = assay: Immunostaining of tumour sections against VEGF; format: in vivo, rat
Method: Working dilution 1:100. As negative control antibody a mouse IgG, clone DAK-GO1, kappa, ×931, Dako, was used with a working dilution of 1:50.
as §10, §13, §14, §15, §16

[1] = test system: Dunning AT-1 rat prostatic tumour; details: sections of treated rat prostatic tumour
Source text: Tumours were investigated for Increased apoptosis with the Apop-Tag In situ apoptosis detection kit (Oncor, Gaithersburg, Md.).

3T3-L1 fibroblasts = details: 200 nM
Method: 3T3L1 fibroblasts from ATCC (embryonic muscle cell-line) batch F-12732 (batch-date 930301) were grown in 500 ml of DMEM, 50 ml of fetal bovine serum (FBS) and 11 ml of PEST. Medium was changed every second day. Cells were passaged when they were 80% confluent.
For differentiating purpose fibroblasts were Incubated in DMEM+10% FCS+5 kg/ml of insulin. 0.1 mM of IBMX and 0.25 μM of dexametason was added. After 2 days cells were transferred to DMEM+10% FCS+5 μg/ml Insulin. Medium was then changed every second day and consisted of DMEM+10% FCS. […] This served as positive control for differentiation.
Fibroblasts were also incubated with the same solutions except that IBMX and dexamethasone were exchanged with solutions of 17α-AED in ethanol and water, making the concentration of 17α-AED 100 or 200 nM in the cultures. Cultures were kept in incubator until confluent.

[2] = test system: Dunning AT-1 rat prostate cancer
[3] = test system: Dunning AT-1, rat prostatic tumour; assay: Tumour morphology; details: Animals I
Method: Group 4 served as untreated, tumour-bearing controls. In all treatments equal amounts of PEG 400 (Sigma Chemicals) and ethanol, 0.5 ml was used as vehicle and injected s.c. adjacent to the tumour site.
In group 2 the experiment was terminated after 96 hours and for the remaining groups after 19 days through asphyxiation of rats with carbon dioxide.

| SMILES | DU-145 mean % viable (DU-145) [%] | DU-145 mean Dead cells (DU-145) | DU-145 mean Tot. cells (DU-145) | DU-145 mean Viable cells (DU-145) | PC-3 mean % viable (PC-3) [%] | PC-3 mean Dead cells (PC-3) | PC-3 mean Tot. cells (PC-3) | PC-3 mean Viable cells (PC-3) | increase in total number of cells compared to controls (PC-3) [%] | proportion of viable cells (PC-3) | PPARγ expression, optical density (PPARγ) | β-catenin expression, optical density (β-catenin) | expression of β-catenin (β-catenin) | COX-2 expression, optical density (COX-2) | expression of cyclin D1 (cyclin D1) | also measured |
| --- | --- | --- | --- | --- | --- | --- | --- | --- | --- | --- | --- | --- | --- | --- | --- | --- |
| C[C@]12CC[C@H]3[C@@H](CC=C4C[C@@H](O)CC[C@@]43C)[C@@H]1CC[C@H]2O [Compound 17α-AED, androstene-3β,17α-diol] | 78.1 | 29(21-37) | 131(122-148) | 102(95-111) | 71.6 | 23(16-32) | 81(64-98) | 58(49-77) | 59 | small decrease in proportion of viable cells | 190(176-210) | 20(15-30) | marked decrease | 219(192-234) | marked decrease | total number of cells (DU-145; DU-145, 100 nM): significant decrease in total number of cells; expression of VEGF (immunostaining) (VEGF; Animals I, 3/4 samples): very weak; programmed cell death compared to control (TUNEL) [1]: no sign of increased programmed cell death; cell proliferation (3T3-L1 fibroblasts): marked inhibition of cell proliferation; mean S-phase ([2]; treated Dunning AT-1 samples, untreated 25.5%): 45.3%; Proportion of cells in G1 ([2]; treated tumours, control tumours 59%): 35%; tumour appearance (morphology) [3]: devitalized tumour tissue in circumscribed areas |
| C[C@]12CC[C@H]3[C@@H](CC=C4C[C@@H](O)CC[C@@]43C)[C@@H]1CC[C@@H]2O [Compound 17β-AED, reference compound] | 72.1 | 35(31-42) | 125(109-149) | 90(78-107) | 73.7 | 17(16-18) | 66(63-71) | 49(46-53) | 29 | small decrease in proportion of viable cells | 47(40-53) | 14(10-22) | did not reduce | 135(133-137) | did not reduce | staining for VEGF (VEGF; Animals II): strong staining for VEGF |
